# Test results published in US7957909B2, “Identification, monitoring and treatment of disease and characterization of biological condition using gene expression profiles” (Source Precision Medicine, Inc., priority 1999, dated 2011).
# Key:
# [1] = test system: Inflammation Gene Expression Panel of Table 1; assay: Inflammation index of stable rheumatoid arthritis patients under three treatment regimens (FIGS. 21-23); format: in vivo, human; settings: for inflammation index compared to normal: 10 stable rheumatoid arthritis patients per treatment group
# Text: (§1) FIG. 17A further illustrates the consistency of inflammatory gene expression, illustrated here with respect to 7 loci of (of the Inflammation Gene Expression Panel of Table 1), in a population of 44 normal, undiagnosed blood donors. For each individual locus is shown the range of values lying within ±2 standard deviations of the mean expression value, which corresponds to 95% of a normally distributed population. Notwithstanding the great width of the confidence interval (95%), the measured gene expression value (ΔCT)—remarkably—still lies within 10% of the mean, regardless of the expression level involved. As described in further detail below, for a given biological condition an index can be constructed to provide a measurement of the condition. This is possible as a result of the conjunction of two circumstances: (i) there is a remarkable consistency of Gene Expression Profiles with respect to a biological condition across a population and (ii) there can be employed procedures that provide substantially reproducible measurement of constituents in a Gene Expression Panel giving rise to a Gene Expression Profile, under measurement conditions wherein specificity and efficiencies of amplification for all constituents of the panel are substantially similar and which therefore provides a measurement of a biological condition. Accordingly, a function of the expression values of representative constituent loci of FIG. 17A is here used to generate an inflammation index value, which is normalized so that a reading of 1 corresponds to constituent expression values of healthy subjects, as shown in the right-hand portion of FIG. 17A.
# This subject in fact was also on a regimen of an anti-inflammation steroid (prednisone) that was being tapered; within approximately one week after the inflammation index was sampled, the subject experienced a significant flare of clinical symptoms.
# [2] = test system: IL1A, IL1B, TNF, IFNG and IL10; assay: Acute Inflammation Index from blood of a single patient treated for optic neuritis (FIG. 2); format: in vivo, human; settings: single patient with optic neuritis
# Text: (§2) For measuring the amount of a particular RNA in a sample, we have used methods known to one of ordinary skill in the art to extract and quantify transcribed RNA from a sample with respect to a constituent of a Gene Expression Panel. (See detailed protocols below. Also see PCT application publication number WO 98/24935 herein incorporated by reference for RNA analysis protocols). Briefly, RNA is extracted from a sample such as a tissue, body fluid, or culture medium in which a population of a subject might be growing. For example, cells may be lysed and RNA eluted in a suitable solution in which to conduct a DNAse reaction. First strand synthesis may be performed using a reverse transcriptase. Gene amplification, more specifically quantitative PCR assays, can then conducted and the gene of interest size calibrated against a marker such as 18S rRNA (Hirayama et al., Blood 92, 1998: 46-52). Samples are measured in multiple duplicates, for example, 4 replicates. Relative quantitation of the mRNA is determined by the difference in threshhold cycles between the internal control and the gene of interest. In an embodiment of the invention, quantitative PCR is performed using amplification, reporting agents and instruments such as those supplied commercially by Applied Biosystems (Foster City, Calif.). […]
# [3] = test system: Inflammation Gene Expression Panel of Table 1; assay: Inflammatory gene expression in whole blood of a human subject after a single oral dose of prednisone (FIG. 14); format: in vivo
# Text: as §2
# [4] = test system: 5 genes (of the Inflammation Gene Expression Panel of Table 1); assay: Gene expression in whole blood samples from a subject given prednisone, challenged with lipopolysaccharide (FIG. 15); format: in vivo, human; settings: blood challenged with 0.1 ng/ml lipopolysaccharide
# Text: For measuring the amount of a particular RNA in a sample, we have used methods known to one of ordinary skill in the art to extract and quantify transcribed RNA from a sample with respect to a constituent of a Gene Expression Panel. (See detailed protocols below. Also see PCT application publication number WO 98/24935 herein incorporated by reference for RNA analysis protocols). Briefly, RNA is extracted from a sample such as a tissue, body fluid, or culture medium in which a population of a subject might be growing. For example, cells may be lysed and RNA eluted in a suitable solution in which to conduct a DNAse reaction. First strand synthesis may be performed using a reverse transcriptase. Gene amplification, more specifically quantitative PCR assays, can then conducted and the gene of interest size calibrated against a marker such as 18S rRNA (Hirayama et al., Blood 92, 1998: 46-52). Samples are measured in multiple duplicates, for example, 4 replicates. Relative quantitation of the mRNA is determined by the difference in threshhold cycles between the internal control and the gene of interest. In an embodiment of the invention, quantitative PCR is performed using amplification, reporting agents and instruments such as those supplied commercially by Applied Biosystems (Foster City, Calif.). Given a defined efficiency of amplification of target transcripts, the point (e.g., cycle number) that signal from amplified target template is detectable may be directly related to the amount of specific message transcript in the measured sample. Similarly, other quantifiable signals such as fluorescence, enzyme activity, disintegrations per minute, absorbance, etc., when correlated to a known concentration of target templates (e.g., a reference standard curve) or normalized to a standard with limited variability can be used to quantify the number of target templates in an unknown sample.
# Specific RNAs are amplified using message specific primers or random primers. […]
# [5] = test system: Inflammation Gene Expression Panel of Table 1; assay: Inflammation index of a single subject with inflammatory bowel disease treated with Remicade (FIG. 24); format: in vivo, human
# Text: as §1
# FIG. 24 illustrates use of the inflammation index for assessment of a single subject suffering from inflammatory bowel disease, for whom treatment with Remicade was initiated in three doses. […] Again, the index, besides providing a measure of biological condition, is here used to measure the effectiveness of therapy (Remicade), as well as to provide a target for therapeutic intervention in terms of both dose and schedule.
# [6] = test system: Inflammation Gene Expression Panel of Table 1; settings: studies have shown; some subjects; cited from earlier work
# IL1B = assay: Whole blood response to E. coli filtrate alone and with polymyxin B (FIG. 34); format: cell-based, human; settings: polymyxin B added to E. coli filtrate
# Text: FIGS. 27 through 41 illustrate the use of gene expression panels in early identification and monitoring of infectious disease. These figures plot the response, in expression products of the genes indicated, in whole blood, to the administration of various infectious agents or products associated with infectious agents. In each figure, the gene expression levels are “calibrated”, as that term is defined herein, in relation to baseline expression levels determined with respect to the whole blood prior to administration of the relevant infectious agent. In this respect the figures are similar in nature to various figures of our below-referenced patent application WO 01/25473 (for example, FIG. 15 therein). The concentration change is shown ratiometrically, and the baseline level of 1 for a particular gene locus corresponds to an expression level for such locus that is the same, monitored at the relevant time after addition of the infectious agent or other stimulus, as the expression level before addition of the stimulus. Ratiometric changes in concentration are plotted on a logarithmic scale. Bars below the unity line represent decreases in concentration and bars above the unity line represent increases in concentration, the magnitude of each bar indicating the magnitude of the ratio of the change. […]
# The responses were monitored at 2, 6, and 24 hours after administration. […]
# [7] = 10 stable rheumatoid arthritis patients
compound,measurement,setting,value
CN(Cc1cnc2nc(N)nc(N)c2n1)c1ccc(C(=O)N[C@@H](CCC(=O)O)C(=O)O)cc1 [methotrexate],inflammation index compared to normal,[1],elevated compared to normal
C[C@]12C=CC(=O)C=C1CC[C@@H]1[C@@H]2C(=O)C[C@@]2(C)[C@H]1CC[C@]2(O)C(=O)CO [prednisone],acute inflammation index,[2]; oral prednisone at 60 mg per day tapered to 10 mg per day,goes up
same,expression of inflammation-related gene loci relative to baseline sample,[3]; 2 hr post single 60 mg oral dose,decreased expression of most of inflammation-related gene loci
same,expression of inflammation-related gene loci relative to baseline sample,"[3]; 24 hr post single 60 mg oral dose, loci with reduced expression at 2 hours",elevated gene expression levels
same,gene expression of the 5 loci in relation to t=0,[4]; 24 hours post administration,inhibitory effect of the prednisone is no longer apparent
same,loci at which gene expression is higher than at t=0 (rebound effect),[4]; 24 hours post administration,3 of the 5 loci
same,gene expression of the 5 loci in relation to t=0,[4]; two hours after single dose,dramatically reduced gene expression
C[C@H]1C[C@@H]2[C@H]([C@@H](O)C[C@@]3(C)[C@H]2CC[C@]3(O)C(=O)COC(=O)CCC(=O)O)[C@@]2(C)C=CC(=O)C=C12 [solumedrol],acute inflammation index,[2]; treatment with IV solumedrol at 1 gram per day,falls rapidly
Enbrel,patients with inflammation index in the normal range,[1]; [7],80%
same,inflammation index compared to normal,[1],comes much closer to normal
Remicade: another TNF inhibitor,abnormally low inflammation index in two of the patients,[1]; [7],suggesting an immunosuppressive response
same,inflammation index compared to normal,[1],all but one of the patients being treated with Remicade have an inflammation index at or below normal
same,inflammation index,[5]; 24 hours after the first treatment,returned to the normal range
same,inflammation index,[5]; just prior to the second dose,elevated
same,inflammation index,[5]; prior to the third dose,in the normal range
same,association with infections in studies,[6],associated with serious infections in some subjects
polymyxin B,effect on the response of IL1B locus to E. coli filtrate,IL1B,did not affect the response
